Measurements as given in patent US9920010B2, “CXCR7 receptor modulators” (IDORSIA PHARMACEUTICALS LTD, priority 2013, dated 2018).

These molecules were tested against T1, CXCR7 (Homo sapiens, UniProt P25106) (assay: PathHunter CHO-K1 CXCR7 b-arrestin recruitment assay (CXCR7 agonistic activity)). Conditions: PathHunter CHO-K1 CXCR7 b-arrestin cell line.
T1 construct: host or cells: CHO-K1 (PathHunter CHO-K1 CXCR7 b-arrestin cell line, stably transfected)
T1 sequence (P25106 whole entry): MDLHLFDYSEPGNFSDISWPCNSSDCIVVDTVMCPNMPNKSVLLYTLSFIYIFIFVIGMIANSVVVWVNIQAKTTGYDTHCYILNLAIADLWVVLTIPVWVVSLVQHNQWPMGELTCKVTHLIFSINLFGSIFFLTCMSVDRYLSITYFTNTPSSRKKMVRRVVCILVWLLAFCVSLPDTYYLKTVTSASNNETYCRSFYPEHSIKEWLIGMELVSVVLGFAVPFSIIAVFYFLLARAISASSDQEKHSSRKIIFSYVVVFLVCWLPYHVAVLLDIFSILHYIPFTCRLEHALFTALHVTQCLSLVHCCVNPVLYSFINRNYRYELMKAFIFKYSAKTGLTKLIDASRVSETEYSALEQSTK
T1 sequence (P32121 whole entry partner): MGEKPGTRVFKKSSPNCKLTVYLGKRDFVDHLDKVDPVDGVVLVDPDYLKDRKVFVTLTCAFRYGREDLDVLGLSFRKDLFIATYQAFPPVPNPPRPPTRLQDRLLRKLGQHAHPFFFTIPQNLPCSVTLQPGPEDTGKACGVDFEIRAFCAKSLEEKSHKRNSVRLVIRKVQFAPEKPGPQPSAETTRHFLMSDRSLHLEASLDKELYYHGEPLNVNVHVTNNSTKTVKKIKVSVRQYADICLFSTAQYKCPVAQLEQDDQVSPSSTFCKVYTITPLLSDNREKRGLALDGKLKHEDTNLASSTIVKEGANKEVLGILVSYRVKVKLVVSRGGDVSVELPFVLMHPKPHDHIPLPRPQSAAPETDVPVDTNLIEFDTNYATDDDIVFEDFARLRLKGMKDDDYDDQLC
Assay type: cell-based
Method in brief: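 Stable CHO-K1 line with C-terminally ProLink-tagged CXCR7 and β-arrestin 2–EA fusion; β-arrestin recruitment restores β-gal activity, read by chemiluminescence after 1 h RT detection. Cells seeded 24 h, starved in OPTIMEM 3–4 h, exposed to compounds 90 min at 37 °C in HBSS/HEPES/BSA. Geometric-mean EC50 from repeated measurements.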
For `COC(=O)N1CCc2cccc(NCC(=O)N(CCN(C)C)Cc3ccccc3)c2C1` [Example 190, 8-({[Benzyl-(2-dimethylamino-ethyl)-carbamoyl]-methyl}-amino)-3,4-dihydro-1H-isoquinoline-2-carboxylic acid methyl ester], the EC50 was 0.11 µM.
With `CN(C)CCN(Cc1ccccc1)C(=O)COc1cccc2c1CN(C)CC2` [Example 201, N-Benzyl-N-(2-dimethylamino-ethyl)-2-(2-methyl-1,2,3,4-tetrahydro-isoquinolin-8-yloxy)-acetamide] the EC50 was 0.027 µM.
Molecule `COC(=O)N1CCc2cccc(OCC(=O)N(CCN(C)C)Cc3ccccc3)c2C1` [Example 204, 8-{[Benzyl-(2-dimethylamino-ethyl)-carbamoyl]-methoxy}-3,4-dihydro-1H-isoquinoline-2-carboxylic acid methyl ester] has an EC50 of 0.04 µM.
In the case of `CCC(=O)N1CCc2cccc(OCC(=O)N(CCN(C)C)Cc3ccccc3)c2C1` [Example 206, N-Benzyl-N-(2-dimethylamino-ethyl)-2-(2-propionyl-1,2,3,4-tetrahydro-isoquinolin-8-yloxy)-acetamide], the EC50 is reported as 0.026 µM.
`CN(C)CCN(Cc1ccccc1)C(=O)COc1cccc2c1CN(C(=O)c1ccccc1)CC2` [Example 207, 2-(2-Benzoyl-1,2,3,4-tetrahydro-isoquinolin-8-yloxy)-N-benzyl-N-(2-dimethylamino-ethyl)-acetamide] gave an EC50 of 0.005 µM.
With `CN(C)CCN(Cc1ccccc1)C(=O)CNc1cccc2c1CN(C)C2` [Example 208, N-Benzyl-N-(2-dimethylamino-ethyl)-2-(2-methyl-2,3-dihydro-1H-isoindol-4-ylamino)-acetamide] the EC50 was 0.248 µM.
Molecule `CN(C)CCN(Cc1ccccc1)C(=O)CNc1cccc2c1CN(CC1CC1)C2` [Example 209, N-Benzyl-2-(2-cyclopropylmethyl-2,3-dihydro-1H-isoindol-4-ylamino)-N-(2-dimethylamino-ethyl)-acetamide] has an EC50 of 0.051 µM.
`CN(C)CCN(Cc1ccccc1C(F)(F)F)C(=O)CNc1cccc2c1CCN(C1CCCC1)C2` [Example 210, 2-((2-Cyclopentyl-1,2,3,4-tetrahydroisoquinolin-5-yl)amino)-N-(2-(dimethylamino)ethyl)-N-(2-(trifluoromethyl)benzyl)acetamide] was tested, and the EC50 was 0.005 µM.
Work on `CN1CCCC1CCN(Cc1ccccc1C(F)(F)F)C(=O)CNc1cccc2c1CCN(CC1CC1)C2` (stereo not drawn) [Example 213, 2-(2-Cyclopropylmethyl-1,2,3,4-tetrahydro-isoquinolin-5-ylamino)-N-[2-(1-methyl-pyrrolidin-2-yl)-ethyl]-N-(2-trifluoromethyl-benzyl)-acetamide] yielded an EC50 of 0.002 µM.
With `O=C(CNc1cccc2c1CCN(CC1CC1)C2)N(CCCN1CCCC1)Cc1ccccc1C(F)(F)F` [Example 214, 2-(2-Cyclopropylmethyl-1,2,3,4-tetrahydro-isoquinolin-5-ylamino)-N-(3-pyrrolidin-1-yl-propyl)-N-(2-trifluoromethyl-benzyl)-acetamide] the EC50 was 0.003 µM.
With `CN(CCN(Cc1ncccc1C(F)(F)F)C(=O)CNc1cccc2c1CCN(CC1CC1)C2)C(=O)OC(C)(C)C` [Example 215, {2-[[2-(2-Cyclopropylmethyl-1,2,3,4-tetrahydro-isoquinolin-5-ylamino)-acetyl]-(3-trifluoromethyl-pyridin-2-ylmethyl)-amino]-ethyl}-methyl-carbamic acid tert-butyl ester] the EC50 was 0.108 µM.
`CC(C)(C)OC(=O)N1CCN(CCN(Cc2ccccc2C(F)(F)F)C(=O)CNc2cccc3c2CCN(CC2CC2)C3)CC1` [Example 216, 4-{2-[[2-(2-Cyclopropylmethyl-1,2,3,4-tetrahydro-isoquinolin-5-ylamino)-acetyl]-(2-trifluoromethyl-benzyl)-amino]-ethyl}-piperazine-1-carboxylic acid tert-butyl ester] showed an EC50 of 0.034 µM.
For `O=C(CNc1cccc2c1CCN(CC1CC1)C2)N(CCN1CCCCC1)Cc1ccccc1C(F)(F)F` [Example 217, 2-(2-Cyclopropylmethyl-1,2,3,4-tetrahydro-isoquinolin-5-ylamino)-N-(2-piperidin-1-yl-ethyl)-N-(2-trifluoromethyl-benzyl)-acetamide], the EC50 was 0.002 µM.
For `O=C(CNc1cccc2c1CCN(CC1CC1)C2)N(CCN1CCCCCC1)Cc1ccccc1C(F)(F)F` [Example 218, N-(2-Azepan-1-yl-ethyl)-2-(2-cyclopropylmethyl-1,2,3,4-tetrahydro-isoquinolin-5-ylamino)-N-(2-trifluoromethyl-benzyl)-acetamide], the EC50 was 0.002 µM.
For `CC(C)N(CCN(Cc1ccccc1C(F)(F)F)C(=O)CNc1cccc2c1CCN(CC1CC1)C2)C(C)C` [Example 219, 2-(2-Cyclopropylmethyl-1,2,3,4-tetrahydro-isoquinolin-5-ylamino)-N-(2-diisopropylamino-ethyl)-N-(2-trifluoromethyl-benzyl)-acetamide], the EC50 was 0.003 µM.
Work on `CN(CCN(Cc1ccccc1C(F)(F)F)C(=O)CNc1cccc2c1CCN(CC1CC1)C2)C1CC1` [Example 220, N-[2-(Cyclopropyl-methyl-amino)-ethyl]-2-(2-cyclopropylmethyl-1,2,3,4-tetrahydro-isoquinolin-5-ylamino)-N-(2-trifluoromethyl-benzyl)-acetamide] yielded an EC50 of 0.003 µM.
`CN(C)CCN(Cc1cccc(OC(F)(F)F)c1)C(=O)CNc1cccc2c1CCN(CC1CC1)C2` [Example 221, 2-(2-Cyclopropylmethyl-1,2,3,4-tetrahydro-isoquinolin-5-ylamino)-N-(2-dimethylamino-ethyl)-N-(3-trifluoromethoxy-benzyl)-acetamide] was tested, and the EC50 was 0.009 µM.
`O=C(CNc1cccc2c1CCN(CC1CC1)C2)N(Cc1ccccc1C(F)(F)F)C1CCC(O)CC1` (stereo not drawn) [Example 222, 2-(2-Cyclopropylmethyl-1,2,3,4-tetrahydro-isoquinolin-5-ylamino)-N-(4-hydroxy-cyclohexyl)-N-(2-trifluoromethyl-benzyl)-acetamide] showed an EC50 of 0.027 µM.
For `COCC(O)CN(Cc1ccccc1C(F)(F)F)C(=O)CNc1cccc2c1CCN(CC1CC1)C2` (stereo not drawn) [Example 223, 2-(2-Cyclopropylmethyl-1,2,3,4-tetrahydro-isoquinolin-5-ylamino)-N-(2-hydroxy-3-methoxy-propyl)-N-(2-trifluoromethyl-benzyl)-acetamide], the EC50 was 0.01 µM.
Molecule `O=C(CNc1cccc2c1CCN(CC1CC1)C2)N(CCC(F)(F)F)Cc1ccccc1C(F)(F)F` [Example 224, 2-(2-Cyclopropylmethyl-1,2,3,4-tetrahydro-isoquinolin-5-ylamino)-N-(2-trifluoromethyl-benzyl)-N-(3,3,3-trifluoro-propyl)-acetamide] has an EC50 of 0.052 µM.
`COCCN(Cc1ccccc1C(F)(F)F)C(=O)CNc1cccc2c1CCN(CC1CC1)C2` [Example 225, 2-(2-Cyclopropylmethyl-1,2,3,4-tetrahydro-isoquinolin-5-ylamino)-N-(2-methoxy-ethyl)-N-(2-trifluoromethyl-benzyl)-acetamide] showed an EC50 of 0.029 µM.
For `O=C(CNc1cccc2c1CCN(CC1CC1)C2)N(Cc1ccccc1C(F)(F)F)CC1COCCO1` (stereo not drawn) [Example 226, 2-(2-Cyclopropylmethyl-1,2,3,4-tetrahydro-isoquinolin-5-ylamino)-N-[1,4]dioxan-2-ylmethyl-N-(2-trifluoromethyl-benzyl)-acetamide], the EC50 was 0.013 µM.
Molecule `CN(C)CCN(Cc1ccccc1OC(F)(F)F)C(=O)CNc1cccc2c1CCN(CC1CC1)C2` [Example 227, 2-(2-Cyclopropylmethyl-1,2,3,4-tetrahydro-isoquinolin-5-ylamino)-N-(2-dimethylamino-ethyl)-N-(2-trifluoromethoxy-benzyl)-acetamide] has an EC50 of 0.006 µM.
For `CN(C)CCN(Cc1ccc(OC(F)(F)F)cc1)C(=O)CNc1cccc2c1CCN(CC1CC1)C2` [Example 228, 2-(2-Cyclopropylmethyl-1,2,3,4-tetrahydro-isoquinolin-5-ylamino)-N-(2-dimethylamino-ethyl)-N-(4-trifluoromethoxy-benzyl)-acetamide], the EC50 was 0.117 µM.
Molecule `CS(=O)(=O)CCN(Cc1ccccc1C(F)(F)F)C(=O)CNc1cccc2c1CCN(CC1CC1)C2` [Example 229, 2-(2-Cyclopropylmethyl-1,2,3,4-tetrahydro-isoquinolin-5-ylamino)-N-(2-methanesulfonyl-ethyl)-N-(2-trifluoromethyl-benzyl)-acetamide] has an EC50 of 0.038 µM.
`CS(=O)(=O)NCCN(Cc1ccccc1C(F)(F)F)C(=O)CNc1cccc2c1CCN(CC1CC1)C2` [Example 230, 2-(2-Cyclopropylmethyl-1,2,3,4-tetrahydro-isoquinolin-5-ylamino)-N-(2-methanesulfonylamino-ethyl)-N-(2-trifluoromethyl-benzyl)-acetamide] was tested, and the EC50 was 0.081 µM.
`CCN(C)CCN(Cc1ccccc1C(F)(F)F)C(=O)CNc1cccc2c1CCN(CC1CC1)C2` [Example 231, 2-(2-Cyclopropylmethyl-1,2,3,4-tetrahydro-isoquinolin-5-ylamino)-N-[2-(ethyl-methyl-amino)-ethyl]-N-(2-trifluoromethyl-benzyl)-acetamide] was tested, and the EC50 was 0.001 µM.
For `CCN(CCN(Cc1ccccc1C(F)(F)F)C(=O)CNc1cccc2c1CCN(CC1CC1)C2)C(=O)OC(C)(C)C` [Example 232, {2-[[2-(2-Cyclopropylmethyl-1,2,3,4-tetrahydro-isoquinolin-5-ylamino)-acetyl]-(2-trifluoromethyl-benzyl)-amino]-ethyl}-ethyl-carbamic acid tert-butyl ester], the EC50 was 0.162 µM.
`NS(=O)(=O)CCN(Cc1ccccc1C(F)(F)F)C(=O)CNc1cccc2c1CCN(CC1CC1)C2` [Example 233, 2-(2-Cyclopropylmethyl-1,2,3,4-tetrahydro-isoquinolin-5-ylamino)-N-(2-sulfamoyl-ethyl)-N-(2-trifluoromethyl-benzyl)-acetamide] showed an EC50 of 0.072 µM.
Work on `CN(C)CCN(Cc1ccccc1Br)C(=O)CNc1cccc2c1CCN(CC1CC1)C2` [Example 234, N-(2-Bromo-benzyl)-2-(2-cyclopropylmethyl-1,2,3,4-tetrahydro-isoquinolin-5-ylamino)-N-(2-dimethylamino-ethyl)-acetamide] yielded an EC50 of 0.003 µM.
